From patent US8053627B2, “Methods for treating demyelination disorders” (University of Chicago, priority 2005, dated 2011) come the findings set out here.

The test system of the assay is corpus callosum of double transgenic mice treated with cuprizone. Description: Cuprizone-induced demyelination/remyelination in GFAP/tTA; TRE/IFN-γ double transgenic mice (DOX− expresses IFN-γ). The format is in vivo. The protocol:
The effects of IFN-γ on demyelination were evaluated in a cuprizone animal model using transgenic mice that allow for temporally regulated delivery of IFN-γ using the tetracycline controllable system (Lin, et al. (2004) J. Neurosci. 24: 10074-10083). The transgenic mice were generated by mating line 110 GFAP/tTA mice on the C57BL/6 background with line 184 TRE/IFN-γ on the C57BL/6 background to produce GFAP/tTA; TRE/IFN-γ double transgenic mice (Lin, et al. (2004) J. Neurosci. 24: 10074-10083). Transcriptional activation of the TRE/IFN-γ transgene by tTA was repressed in the control (DOX+) mice by adding 0.05 mg/ml doxycycline to the drinking water which was provided ad libitum from the day of conception. The DOX+ double transgenic mice were GFAP/tTA; TRE/IFN-γ double transgenic animals fed cuprizone chow and never released from the doxycycline solution. DOX− double transgenic mice were GFAP/tTA; TRE/IFN-γ double transgenic animals fed cuprizone chow and released from doxycycline to induce expression of IFN-γ.
Demyelination was induced in 6-week-old DOX+ and DOX− male mice by feeding the mice a diet of milled mouse chow containing 0.2% cuprizone (Sigma-Aldrich, St. Louis, […].) for up to 6 weeks. Subsequently, both groups of mice were returned to a normal diet for up to 3 weeks to allow remyelination to occur. All animal procedures were conducted in complete compliance with the NIH Guide for the Care and Use of Laboratory Animals and were approved by the Institutional Animal Care and Use Committee of The University of Chicago.
The expression of IFN-γ in these animals was examined by Enzyme-Linked Immunosorbent Assay (ELISA) analysis as follows. Spinal cord and forebrains were removed, rinsed in ice cold PBS, and immediately homogenized in five volumes of PBS with complete protease cocktail (Roche, Indianapolis, Ind.) using a motorized homogenizer. After incubation on ice for 5 min the extracts were cleared by centrifugation at 14000 rpm for 10 min. The protein content of each extract was determined by the DC protein assay (Bio-Rad, Hercules, Calif.). ELISA assays were performed using Mouse IFN-γ Quantikine ELISA kit (R&D system, Minneapolis, Minn.) and MBP antibodies (1:1000; Sternberger Monoclonals) according to the manufacture's instructions.
Real time PCR was used to determine the effect of IFN-yon the expression of MHC-1. RNA was isolated from the corpus callosum (Jurevics, et al., 2002) using Trizol reagent (Invitrogen, Carlsbad, Calif.) and treated with DNAseI (Invitrogen, Carlsbad, Calif.) to eliminate genomic DNA. Reverse transcription was performed using Superscript First Strand Synthesis System for RT-PCR kit (Invitrogen, Carlsbad, Calif.). Real-time PCR was performed with iQ supermix (Bio-Rad, Hercules Calif.) on a Bio-Rad iQ real-time PCR detection system (Bio-Rad, Hercules Calif.). The primers and probes (Integrated DNA Technologies Inc., Coralville, Iowa) for real-time PCR were as follows:
The effect of INF-γ on the population of oligodendrocytes was evaluated by immunohistochemical analysis of oligodendrocytes using an anti-CC1 antibody (APC7, 1:50; EMD Biosciences, Inc., La Jolla, Calif.) Immunohistochemistry was perfomed on brain sections obtained from mice that were first anesthetized mice and perfused through the left cardiac ventricle with 4% paraformaldehyde in 0.1M PBS. The brains were removed, postfixed with paraformaldehyde, cryopreserved in 30% sucrose, embedded in OCT and frozen on dry ice. Frozen sections were cut in a cryostat at a thickness of 10 μm. […]

As for “IFN-γ: pleotropic cytokine secreted by activated T lymphocytes and natural killer cells; delivered to the CNS by transgene or added as recombinant protein”, the “CC1 positive oligodendrocytes within the corpus callosum” value (DOX− mice, 8 weeks) is 78±12.7 /0.04 mm2. Further, the “NG2 positive OPCs in the corpus callosum” value reads like this: (DOX− mice, week 4 of cuprizone treatment) 46±4.24 /0.04 mm^2; (DOX− mice, week 6) 31.5±0.71 /0.04 mm^2. Moreover, the “expression of myelin genes MBP, PLP and CGT” value (DOX− mice, week 6 and week 8) is reported as “significantly depressed”. Besides, the “remyelinated axons (EM)” value (DOX− mice, week 8) is 26.9%±7%. Further, the “effect on the initial pathological processes induced by cuprizone exposure” value (demyelination phase) is recorded as “does not have a significant effect”. In addition, the “expression of MHC-I in the corpus callosum (real-time PCR)” value (during remyelination) is recorded as “significant increase”.
